Test results taken from patent US6794397B2, “Substituted nicotinamides and analogs as activators of caspases and inducers of apoptosis and the use thereof” (Cytovia, Inc., priority 2000, dated 2004).
Read-outs that look alike come from different tables or passages of the source.

Columns and labels:
[1] = test system: T47D; test: Caspase cascade activation assay (N-(Ac-DEVD)-N'-ethoxycarbonyl-R110 fluorogenic substrate) in T47D cells; type: cell-based, Human; settings: 24 h incubation; for EC50 (nM) caspase potency / EC50: sigmoidal dose-response; for Caspase activity Ratio: ratio of net RFU of test compound to control, 0.16 to 10 μM final; for EC50: read-out: EC50 (nM) caspase potency
Procedure: (§1) Human breast cancer cell lines T47D and ZR75-1 were grown according to media component mixtures designated by American Type Culture Collection +10% FCS (Invitrogen Corporation, Life Technologies Division), in a 5% CO2 −95% humidity incubator at 37° C. T47D and ZR75-1 cells were maintained at a cell density between 30 and 80% confluency at a cell density of 0.1 to 0.6×10^6 cells/ml. Cells were harvested at 600xg and resuspended at 0.65×10^6 cells/ml into appropriate media +10% FCS. An aliquot of 45 μl of cells was added to a well of a 96-well microtiter plate containing 5 μl of a 10% DMSO in RPMI-1640 media solution containing 1.6 to 100 μM of N-(4-methoxy-2-nitrophenyl)-3-pyridinecarboxamide or other test compound (0.16 to 10 μM final). An aliquot of 45 μl of cells was added to a well of a 96-well microtiter plate containing 5 μl of a 10% DMSO in RPMI-1640 media solution without test compound as the control sample. The samples were mixed by agitation and then incubated at 37 C. for 24 h in a 5% CO2 −95% humidity incubator. After incubation, the samples were removed from the incubator and 50 μl of a solution containing 20 μM of N-(Ac-DEVD)-N′-ethoxycarbonyl-R110 (SEQ ID NO: 1) fluorogenic substrate (Cytovia, Inc.; WO99/18856), 20% sucrose (Sigma), 20 mM DTT (Sigma), 200 mM NaCl (Sigma), 40 mM Na PIPES buffer pH 7.2 (Sigma), and 500 μg/ml lysolecithin (Calbiochem) was added. The samples were mixed by agitation and incubated at room temperature. Using a fluorescent plate reader (Model 1420 Wallac Instruments), an initial reading (T=0) was made approximately 1-2 min after addition of the substrate solution, employing excitation at 485 nm and emission at 530 nm, to determine the background fluorescence of the control sample. After the 3 h incubation, the samples were read for fluorescence as above (T=3 h).
(§2) The Relative Fluorescence Unit values (RFU) were used to calculate the sample readings as follows:
(§3) RFU(T=3h)−Control RFU(T=0)=Net RFU(T=3h).
(§4) The activity of caspase cascade activation was determined by the ratio of the net RFU value for N-(4-methoxy-2-nitrophenyl)-3-pyridinecarboxamide or other test compound to that of control samples. The EC50 (nM) was determined by a sigmoidal dose-response calculation (Prism 2.0, GraphPad Software Inc.).

[2] = test system: ZR75-1; test: Caspase cascade activation assay (N-(Ac-DEVD)-N'-ethoxycarbonyl-R110 fluorogenic substrate) in ZR75-1 cells; type: cell-based, Human; settings: for EC50 (nM) caspase potency / EC50: sigmoidal dose-response; for Caspase activity Ratio: ratio of net RFU of test compound to control, 0.16 to 10 μM final; for EC50: read-out: EC50 (nM) caspase potency
Procedure: as §1, §2, §3, §4

[3] = Homo sapiens, ZR-75-1, 24 h incubation

SMILES | EC50 (nM) caspase potency [1] | EC50 (nM) caspase potency ([2]; 24 h incubation) | EC50 ([1]; Homo sapiens) | EC50 [2, 3] | EC50 [1] | EC50 ([2]; 24 h incubation) | Caspase activity Ratio [1] | Caspase activity Ratio ([2]; 24 h incubation)
O=C(Nc1ccc(C(=O)c2ccccc2)cc1[N+](=O)[O-])c1ccc(Cl)nc1 [Example 24, 6-Chloro-N-(4-benzoyl-2-nitrophenyl)-3-pyridinecarboxamide] | Inactive | Inactive |  |  |  |  | Inactive | Inactive
O=C(Nc1ccccc1[N+](=O)[O-])c1ccc(Cl)nc1 [Example 10, 6-Chloro-N-(2-nitrophenyl)-3-pyridinecarboxamide] | Inactive | Inactive |  |  |  |  | Inactive | Inactive
COc1ccc(NC(=O)c2ccc(Cl)nc2)c(C)c1 [Example 20, 6-Chloro-N-(4-methoxy-2-methylphenyl)-3-pyridinecarboxamide] | Inactive | Inactive |  |  |  |  | Inactive | Inactive
CCOc1ccc(N(C)C(=O)c2ccc(Cl)nc2)c([N+](=O)[O-])c1 [Example 30, 6-Chloro-N-(4-ethoxy-2-nitrophenyl)-N-methyl-3-pyridinecarboxamide] | Inactive | Inactive |  |  |  |  | Inactive | Inactive
COc1ccc(NC(=O)c2ccc(Cl)nc2)cc1 [Example 11, 6-Chloro-N-(4-methoxyphenyl)-3-pyridinecarboxamide] | Inactive | Inactive |  |  |  |  | Inactive | Inactive
O=C(Nc1ccc(F)cc1[N+](=O)[O-])c1ccc(Cl)nc1 [Example 3, 6-Chloro-N-(4-fluoro-2-nitrophenyl)-3-pyridinecarboxamide] | Inactive |  |  | 4620 nM |  |  | Inactive | 2.1
O=C(Nc1ccc(OCc2ccccc2)cc1[N+](=O)[O-])c1ccc(Cl)nc1 [Example 25, 6-Chloro-N-(4-benzyloxy-2-nitrophenyl)-3-pyridinecarboxamide] |  |  | 345 nM | 133 nM |  |  | 5.8 | 6.6
Cc1cc(NC(=O)c2ccc(Cl)nc2)c([N+](=O)[O-])cc1C [Example 27, 6-Chloro-N-(4,5-dimethyl-2-nitrophenyl)-3-pyridinecarboxamide] | Inactive | Inactive |  |  |  |  | Inactive | Inactive
CCOc1ccc(NC(=O)c2ccc(C)nc2)c([N+](=O)[O-])c1 [Example 26, 6-Methyl-N-(4-ethoxy-2-nitrophenyl)-3-pyridinecarboxamide] |  |  | 42 nM | 20 nM |  |  | 5.5 | 3.2
O=C(Nc1ccc(Cl)cc1[N+](=O)[O-])c1ccc(Cl)nc1 [Example 2, 6-Chloro-N-(4-chloro-2-nitrophenyl)-3-pyridinecarboxamide] |  |  | 587 nM | 329 nM |  |  | 7.8 | 5.8
N#Cc1ccc(NC(=O)c2ccc(Cl)nc2)c([N+](=O)[O-])c1 [Example 21, 6-Chloro-N-(4-cyano-2-nitrophenyl)-3-pyridinecarboxamide] | Inactive |  |  | 4670 nM |  |  | Inactive | 2.3
O=C(Nc1ccc([N+](=O)[O-])cc1[N+](=O)[O-])c1ccc(Cl)nc1 [Example 17, 6-Chloro-N-(2,4-dinitrophenyl)-3-pyridinecarboxamide] | Inactive | Inactive |  |  |  |  | Inactive | Inactive
COc1ccc(NC(=O)c2ccc(Cl)nc2)c(OC)c1 [Example 5, 6-Chloro-N-(2,4-dimethoxyphenyl)-3-pyridinecarboxamide] | Inactive | Inactive |  |  |  |  | Inactive | Inactive

Second part, led by results:

EC50 (nM) caspase potency [1] | EC50 (nM) caspase potency ([2]; 24 h incubation) | EC50 ([1]; Homo sapiens) | EC50 [2, 3] | EC50 [1] | EC50 ([2]; 24 h incubation) | SMILES | Caspase activity Ratio [1] | Caspase activity Ratio ([2]; 24 h incubation)
Inactive | Inactive |  |  |  |  | COc1ccc(NC(=O)c2cnc(Cl)nc2C(F)(F)F)c([N+](=O)[O-])c1 [Example 13, 2-Chloro-4trifluoromethyl-N-(4methoxy-2-nitrophenyl)-5-pyrimidinecarboxamide] | Inactive | Inactive
 |  | 2970 nM | 729 nM |  |  | O=C(Nc1ccc(C(F)(F)F)cc1[N+](=O)[O-])c1ccc(Cl)nc1 [Example 1, 6-Chloro-N-(2-nitro-4-trifluoromethylphenyl)-3-pyridinecarboxamide] | 8.9 | 3.6
Inactive | Inactive |  |  |  |  | COc1ccc(NC(=O)c2cc(Cl)nc(Cl)c2)c([N+](=O)[O-])c1 [Example 12, 2,6-Dichloro-N-(4-methoxy-2-nitrophenyl)-4-pyridinecarboxamide] | Inactive | Inactive
Inactive | Inactive |  |  |  |  | COc1ccc(NC(=O)c2cnc(Cl)c(Cl)c2)c([N+](=O)[O-])c1 [Example 16, 5,6-Dichloro-N-(4-methoxy-2-nitrophenyl)-3-pyridinecarboxamide] | Inactive | Inactive
 |  |  |  | 7330 nM | 4510 nM | COc1ccc(NC(=O)c2ccc(Cl)[n+]([O-])c2)c([N+](=O)[O-])c1 [Example 28, 6-Chloro-N-(4-methoxy-2-nitrophenyl)-1-N-oxide-3-pyridinecarboxamide] | 2.4 | 5.1
Inactive | Inactive |  |  |  |  | COc1ccc(NC(=O)c2ccc(Cl)nc2Cl)c([N+](=O)[O-])c1 [Example 15, 2,6-Dichloro-N-(4-methoxy-2-nitrophenyl)-3-pyridinecarboxamide] | Inactive | Inactive
 |  | 466 nM | 295 nM |  |  | CCOc1ccc(NC(=O)c2ccc(F)nc2)c([N+](=O)[O-])c1 [Example 22, 6-Fluoro-N-(4-ethoxy-2-nitrophenyl)-3-pyridinecarboxamide] | 7.6 | 6.6
Inactive | Inactive |  |  |  |  | COc1ccc(NC(=O)c2ccncc2)c([N+](=O)[O-])c1 [Example 14, N-(4-methoxy-2-nitrophenyl)-4-pyridinecarboxamide] | Inactive | Inactive
 |  |  |  | 608 nM | 171 nM | O=C(Nc1ccc(OC(F)(F)F)cc1[N+](=O)[O-])c1ccc(Cl)nc1 [Example 23, 6-Chloro-N-(2-nitro-4-tifluoromethoxyphenyl)-3-pyridinecarboxamide] | 7.2 | 9.9
 |  | 920 nM | 488 nM |  |  | Cc1ccc(NC(=O)c2ccc(Cl)nc2)c([N+](=O)[O-])c1 [Example 9, 6-Chloro-N-(4-methyl-2-nitrophenyl)-3-pyridinecarboxamide] | 5.4 | 5.0
